In publication PMC4710668, “Bioactivation of food genotoxicants 5-hydroxymethylfurfural and furfuryl alcohol by sulfotransferases from human, mouse and rat: a comparative study” (Archives of Toxicology, 2014):

Key:
Assay in all cases: HMF sulfoconjugation assay
Assay type in all cases: biochemical
hSULT1C1 = molecular target: T1, hSULT1C1 (Homo sapiens, UniProt O00338)
T1 construct: made in house; host or cells: Salmonella typhimurium TA1538 (cytosolic fraction, not purified)
How it was run: (§1)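 SULT cytosol from TA1538, 25–200 µg protein; KPi 50 mM pH 7.4, MgCl2 5 mM, PAPS 50 µM; HMF varied; 37 °C, 30 min; stop with ice-cold 2-propanol; SMF by UPLC-MS/MS, LOD 0.5 pmol SMF/mg/min.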

rSult1b1 = molecular target: T2, rSult1b1 (Rattus norvegicus, UniProt P52847)
T2 construct: made in house; host or cells: Salmonella typhimurium TA1538 (cytosolic fraction, enzyme not purified)
T2 sequence (P52847 whole entry): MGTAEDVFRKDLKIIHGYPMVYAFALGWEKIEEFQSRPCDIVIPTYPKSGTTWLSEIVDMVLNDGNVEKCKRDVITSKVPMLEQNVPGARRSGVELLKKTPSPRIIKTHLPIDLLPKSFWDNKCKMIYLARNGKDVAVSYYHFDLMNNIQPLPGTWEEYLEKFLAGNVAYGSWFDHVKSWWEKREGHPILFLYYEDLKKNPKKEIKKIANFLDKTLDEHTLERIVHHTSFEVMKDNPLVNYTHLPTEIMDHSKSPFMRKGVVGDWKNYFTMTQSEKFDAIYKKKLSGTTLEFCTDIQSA
How it was run: as §1

mSult2a1 = molecular target: T3, mSult2a1 (Mus musculus, UniProt P52843)
T3 construct: made in house; host or cells: Salmonella typhimurium TA1538 (cytosolic fraction, enzyme not purified)
T3 sequence (P52843 1-285): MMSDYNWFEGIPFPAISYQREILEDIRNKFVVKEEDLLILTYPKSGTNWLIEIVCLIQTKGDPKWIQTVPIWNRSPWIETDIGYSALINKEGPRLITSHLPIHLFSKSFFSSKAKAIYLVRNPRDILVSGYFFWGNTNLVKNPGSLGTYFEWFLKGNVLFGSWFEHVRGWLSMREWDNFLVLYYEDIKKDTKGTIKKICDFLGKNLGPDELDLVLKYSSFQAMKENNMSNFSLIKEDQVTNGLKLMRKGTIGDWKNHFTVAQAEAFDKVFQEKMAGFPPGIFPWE
How it was run: as §1

hSULT1B1 = molecular target: T4, hSULT1B1 (Homo sapiens, UniProt O43704)
T4 construct: made in house; host or cells: Salmonella typhimurium TA1538 (cytosolic fraction, not purified)
T4 sequence (O43704 whole entry): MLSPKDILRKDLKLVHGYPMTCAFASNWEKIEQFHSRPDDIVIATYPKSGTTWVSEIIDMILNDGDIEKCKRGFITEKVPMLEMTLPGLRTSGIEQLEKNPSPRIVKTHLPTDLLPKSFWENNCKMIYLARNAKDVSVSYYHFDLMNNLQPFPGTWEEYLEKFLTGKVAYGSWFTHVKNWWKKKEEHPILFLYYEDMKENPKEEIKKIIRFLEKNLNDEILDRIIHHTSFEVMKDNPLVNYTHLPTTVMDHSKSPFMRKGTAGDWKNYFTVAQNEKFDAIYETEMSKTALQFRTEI
How it was run: as §1

hSULT1E1 = molecular target: T5, hSULT1E1 (Homo sapiens, UniProt P49888)
T5 construct: made in house; host or cells: Salmonella typhimurium TA1538 (cytosolic fraction, not purified)
T5 sequence (P49888 1-294): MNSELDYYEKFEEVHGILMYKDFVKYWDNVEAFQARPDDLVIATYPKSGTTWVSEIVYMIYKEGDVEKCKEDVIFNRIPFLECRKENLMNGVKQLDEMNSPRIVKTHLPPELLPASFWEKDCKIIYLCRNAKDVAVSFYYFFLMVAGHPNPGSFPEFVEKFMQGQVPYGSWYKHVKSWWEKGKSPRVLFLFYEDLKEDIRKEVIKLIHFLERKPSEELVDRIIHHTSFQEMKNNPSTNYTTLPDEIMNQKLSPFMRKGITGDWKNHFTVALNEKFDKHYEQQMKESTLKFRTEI
How it was run: as §1

hSULT1C2 = molecular target: T6, hSULT1C2 (Homo sapiens, UniProt O75897)
T6 construct: made in house; host or cells: Salmonella typhimurium TA1538 (cytosolic fraction, not purified)
T6 sequence (O75897 whole entry): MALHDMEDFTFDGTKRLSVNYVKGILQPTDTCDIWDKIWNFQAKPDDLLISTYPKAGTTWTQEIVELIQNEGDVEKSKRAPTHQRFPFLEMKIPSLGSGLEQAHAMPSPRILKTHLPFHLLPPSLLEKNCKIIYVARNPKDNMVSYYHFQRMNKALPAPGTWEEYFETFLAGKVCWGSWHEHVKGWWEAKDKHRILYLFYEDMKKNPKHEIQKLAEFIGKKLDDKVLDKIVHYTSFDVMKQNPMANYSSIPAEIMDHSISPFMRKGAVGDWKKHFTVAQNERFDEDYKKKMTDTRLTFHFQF
How it was run: as §1

[1] = HMF sulfoconjugation, Michaelis-Menten fit

T1 sequence (O00338 whole entry): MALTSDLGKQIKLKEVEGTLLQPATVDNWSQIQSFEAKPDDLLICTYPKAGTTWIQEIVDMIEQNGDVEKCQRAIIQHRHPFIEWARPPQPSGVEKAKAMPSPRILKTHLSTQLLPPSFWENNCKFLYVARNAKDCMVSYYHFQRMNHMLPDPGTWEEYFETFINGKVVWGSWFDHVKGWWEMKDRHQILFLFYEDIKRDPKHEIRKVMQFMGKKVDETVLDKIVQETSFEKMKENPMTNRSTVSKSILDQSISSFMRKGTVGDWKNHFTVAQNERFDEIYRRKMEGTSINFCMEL

`O=Cc1ccc(CO)o1` [HMF, 5-Hydroxymethylfurfural] showed a Rate of sulfoconjugation (hSULT1C1; 0.1 mM HMF) of less than 0.5 pmol/mg/min, a Rate of sulfoconjugation (hSULT1C1; 1 mM HMF) of less than 0.5 pmol/mg/min and a Rate of sulfoconjugation (hSULT1C1; 10 mM HMF) of 4.7 ± 0.3 pmol/mg/min. For the same molecule, the Rate of sulfoconjugation (hSULT1C1; 100 mM HMF) was 11.0 ± 1.4 pmol/mg/min, the Rate of sulfoconjugation (rSult1b1; 0.1 mM HMF) was less than 0.5 pmol/mg/min and the Rate of sulfoconjugation (rSult1b1; 1 mM HMF) was 3.4 ± 0.2 pmol/mg/min. The Rate of sulfoconjugation (rSult1b1; 10 mM HMF) was 25.2 ± 0.4 pmol/mg/min, the Rate of sulfoconjugation (rSult1b1; 100 mM HMF) was 30.8 ± 1.2 pmol/mg/min and the “K M” value (rSult1b1; [1]) was 15.7 ± 0.9 mM. For the same molecule, the Rate of sulfoconjugation (mSult2a1; 0.1 mM HMF) was less than 0.5 pmol/mg/min, the Rate of sulfoconjugation (mSult2a1; 1 mM HMF) was 1.3 ± 0.2 pmol/mg/min and the Rate of sulfoconjugation (mSult2a1; 10 mM HMF) was 9.0 ± 0.9 pmol/mg/min. For the same molecule, the Rate of sulfoconjugation (mSult2a1; 100 mM HMF) was 13.1 ± 1.7 pmol/mg/min, the Rate of sulfoconjugation (hSULT1B1; 0.1 mM HMF) was 2.0 ± 0.5 pmol/mg/min and the Rate of sulfoconjugation (hSULT1B1; 1 mM HMF) was 22.2 ± 5.2 pmol/mg/min. The Rate of sulfoconjugation (hSULT1B1; 10 mM HMF) was 133 ± 28 pmol/mg/min, the Rate of sulfoconjugation (hSULT1B1; 100 mM HMF) was 272 ± 49 pmol/mg/min and the “K M” value (hSULT1B1; [1]) was 13.3 ± 0.3 mM. For the same molecule, the Rate of sulfoconjugation (hSULT1E1; 0.1 mM HMF) was less than 0.5 pmol/mg/min, the Rate of sulfoconjugation (hSULT1E1; 1 mM HMF) was 1.0 ± 0.2 pmol/mg/min and the Rate of sulfoconjugation (hSULT1E1; 10 mM HMF) was 5.7 ± 0.8 pmol/mg/min. It also gave a Rate of sulfoconjugation (hSULT1E1; 100 mM HMF) of 7.7 ± 1.2 pmol/mg/min, a Rate of sulfoconjugation (hSULT1C2; 0.1 mM HMF) of 1.1 ± 0.3 pmol/mg/min and a Rate of sulfoconjugation (hSULT1C2; 1 mM HMF) of 14.0 ± 1.8 pmol/mg/min. The Rate of sulfoconjugation (hSULT1C2; 10 mM HMF) was 115 ± 14 pmol/mg/min, the Rate of sulfoconjugation (hSULT1C2; 100 mM HMF) was 285 ± 71 pmol/mg/min and the “K M” value (hSULT1C2; [1]) was 18.8 ± 5.4 mM.
